Blank lines part the entries; values can stand above or below the molecule they belong to.
Experiments:
Serotonin reuptake = target: T1, Serotonin reuptake (Rattus norvegicus, UniProt P31652); experiment: Inhibition of 5HT (serotonin) uptake in rat brain synaptosomes; assay type: biochemical; conditions: 10 μmol; synaptosomes from rat brain
T1 construct: synaptosomes are freshly isolated from areas of the rat brain; from tissue; host or cells: rat brain synaptosomes (P2 fraction)
Protocol: (§1) Biological Data Inhibition of NA and 5HT Uptake
(§2) In order to be able to carry out these in vitro studies, synaptosomes are freshly isolated from areas of the rat brain. In each case a so-called “P2” fraction prepared in accordance with the instructions of Gray and Whittaker (E. G. Gray and V. P. Whittaker (1962) J. Anat. 76, 79-88) is prepared. For the NA uptake, these vesicular particles are isolated from the hypothalamus of male rat brains. A detailed description of the method can be found in the literature (M. Ch. Frink, H.-H. Hennies, W. Englberger, M. Haurand and B. Wilffert (1996) Arzneim.-Forsch./Drug Res. 46 (III), 11, 1029-1036).

NA reuptake = experiment: Inhibition of NA (noradrenaline) uptake in rat hypothalamus synaptosomes; assay type: biochemical; conditions: synaptosomes from hypothalamus of male rat brains
Protocol: as §1, §2

T1 sequence (P31652 whole entry): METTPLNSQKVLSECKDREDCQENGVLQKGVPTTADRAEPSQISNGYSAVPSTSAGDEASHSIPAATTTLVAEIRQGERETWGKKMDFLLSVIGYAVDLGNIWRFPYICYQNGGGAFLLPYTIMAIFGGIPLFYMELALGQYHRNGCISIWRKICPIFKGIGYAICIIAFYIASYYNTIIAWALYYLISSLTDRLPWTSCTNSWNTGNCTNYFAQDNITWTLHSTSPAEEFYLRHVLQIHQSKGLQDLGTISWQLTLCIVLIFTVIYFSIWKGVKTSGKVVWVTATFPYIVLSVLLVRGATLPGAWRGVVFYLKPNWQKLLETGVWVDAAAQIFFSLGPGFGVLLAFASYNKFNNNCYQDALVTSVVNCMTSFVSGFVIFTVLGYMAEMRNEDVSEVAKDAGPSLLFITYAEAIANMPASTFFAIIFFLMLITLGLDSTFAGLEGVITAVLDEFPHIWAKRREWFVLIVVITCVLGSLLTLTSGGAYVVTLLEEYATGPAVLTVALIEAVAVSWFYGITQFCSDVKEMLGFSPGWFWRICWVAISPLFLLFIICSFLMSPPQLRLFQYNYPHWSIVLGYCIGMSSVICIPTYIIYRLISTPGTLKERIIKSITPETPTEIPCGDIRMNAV

Structure (SMILES): O=C(c1ccc2c(c1)OCO2)N1CCn2cccc2C1c1cccc(Cl)c1 (stereo not drawn) [Example 40, benzo[d][1,3]dioxol-5-yl(1-(3-chlorophenyl)-3,4-dihydropyrrolo[1,2-a]pyrazin-2(1H)-yl)methanone]
- inhibition at 10 µM (Serotonin reuptake): 38%
- NA reuptake % inhibition [10 μmol] (NA reuptake): 41%

Structure (SMILES): O=C(c1cccc(F)c1)N1CCn2cccc2C1c1ccccc1F (stereo not drawn) [Example 7, (3-fluoro-phenyl)-[1-(2-fluoro-phenyl)-3,4-dihydro-1H-pyrrolo[1,2-a]pyrazin-2-yl]-methanone]
- inhibition at 10 µM (Serotonin reuptake): 54%
- NA reuptake % inhibition [10 μmol] (NA reuptake): 36%

Structure (SMILES): O=C(c1ccc(F)cc1)N1CCn2cccc2C1c1ccccc1 (stereo not drawn) [Example 20, (4-fluorophenyl)(1-phenyl-3,4-dihydropyrrolo[1,2-a]pyrazin-2(1H)-yl)methanone]
- inhibition at 10 µM (Serotonin reuptake): 32%
- NA reuptake % inhibition [10 μmol] (NA reuptake): 33%

Structure (SMILES): CN(C)c1ccc(C2c3cccn3CCN2C(=O)c2ccc(F)cc2)cc1 (stereo not drawn) [Example 54, (1-(4-(dimethylamino)phenyl)-3,4-dihydropyrrolo[1,2-a]pyrazin-2(1H)-yl)(4-fluorophenyl)methanone]
- inhibition at 10 µM (Serotonin reuptake): 47%
- NA reuptake % inhibition [10 μmol] (NA reuptake): 40%

Structure (SMILES): O=C(c1ccccc1F)N1CCn2cccc2C1c1ccccc1F (stereo not drawn) [Example 47, (2-fluorophenyl)(1-(2-fluorophenyl)-3,4-dihydropyrrolo[1,2-a]pyrazin-2(1H)-yl)methanone]
- inhibition at 10 µM (Serotonin reuptake): 18%
- NA reuptake % inhibition [10 μmol] (NA reuptake): 12%

Structure (SMILES): Cc1ccc(C2c3cccn3CCN2C(=O)c2ccccc2F)cc1 (stereo not drawn) [Example 69, (2-fluorophenyl)(1-p-tolyl-3,4-dihydropyrrolo[1,2-a]pyrazin-2(1H)-yl)methanone]
- inhibition at 10 µM (Serotonin reuptake): 40%
- NA reuptake % inhibition [10 μmol] (NA reuptake): 12%

Structure (SMILES): O=C(c1ccco1)N1CCn2cccc2C1c1ccccc1F (stereo not drawn) [Example 5, (1-(2-fluorophenyl)-3,4-dihydropyrrolo[1,2-a]pyrazin-2(1H)-yl)(furan-2-yl)methanone]
- inhibition at 10 µM (Serotonin reuptake): 11%
- NA reuptake % inhibition [10 μmol] (NA reuptake): 34%

Structure (SMILES): Cc1ccccc1C1c2cccn2CCN1C(=O)c1ccc2c(c1)OCO2 (stereo not drawn) [Example 12, benzo[d][1,3]dioxol-5-yl(1-o-tolyl-3,4-dihydropyrrolo[1,2-a]pyrazin-2(1H)-yl)methanone]
- inhibition at 10 µM (Serotonin reuptake): 34%
- NA reuptake % inhibition [10 μmol] (NA reuptake): 22%

Structure (SMILES): Cc1ccccc1C(=O)N1CCn2cccc2C1c1ccc(N(C)C)cc1 (stereo not drawn) [Example 50, (1-(4-(dimethylamino)phenyl)-3,4-dihydropyrrolo[1,2-a]pyrazin-2(1H)-yl)(o-tolyl)methanone]
- inhibition at 10 µM (Serotonin reuptake): 41%
- NA reuptake % inhibition [10 μmol] (NA reuptake): 14%

Structure (SMILES): Cc1ccccc1C(=O)N1CCn2cccc2C1c1ccccc1C (stereo not drawn) [Example 11, o-tolyl(1-o-tolyl-3,4-dihydropyrrolo[1,2-a]pyrazin-2(1H)-yl)methanone]
- inhibition at 10 µM (Serotonin reuptake): 38%

Structure (SMILES): Cc1cccc(C2c3cccn3CCN2C(=O)C2CCCC2)c1 (stereo not drawn) [Example 17, cyclopentyl(1-m-tolyl-3,4-dihydropyrrolo[1,2-a]pyrazin-2(1H)-yl)methanone]
- inhibition at 10 µM (Serotonin reuptake): 34%
- NA reuptake % inhibition [10 μmol] (NA reuptake): 21%

Structure (SMILES): O=C(C1CCCC1)N1CCn2cccc2C1c1ccc(Cl)c(Cl)c1 (stereo not drawn) [Example 62, cyclopentyl-[1-(3,4-dichloro-phenyl)-3,4-dihydro-1H-pyrrolo[1,2-a]pyrazin-2-yl]-methanone]
- inhibition at 10 µM (Serotonin reuptake): 51%
- NA reuptake % inhibition [10 μmol] (NA reuptake): 29%

Structure (SMILES): Cc1ccccc1C1c2cccn2CCN1C(=O)C1CCCC1 (stereo not drawn) [Example 10, cyclopentyl-(1-o-tolyl-3,4-dihydro-1H-pyrrolo[1,2-a]pyrazin-2-yl)-methanone]
- inhibition at 10 µM (Serotonin reuptake): 50%
- NA reuptake % inhibition [10 μmol] (NA reuptake): 30%

Structure (SMILES): Cc1ccccc1C(=O)N1CCn2cccc2C1c1ccc2c(c1)OCCO2 (stereo not drawn) [Example 34, [1-(2,3-dihydro-benzo[1,4]dioxin-6-yl)-3,4-dihydro-1H-pyrrolo[1,2-a]pyrazin-2-yl]-o-tolyl-methanone]
- inhibition at 10 µM (Serotonin reuptake): 52%
- NA reuptake % inhibition [10 μmol] (NA reuptake): 22%

Structure (SMILES): COc1ccccc1C1c2cccn2CCN1C(=O)c1cccc(F)c1 (stereo not drawn) [Example 1, (3-fluorophenyl)(1-(2-methoxyphenyl)-3,4-dihydropyrrolo[1,2-a]pyrazin-2(1H)-yl)methanone]
- inhibition at 10 µM (Serotonin reuptake): 26%

Structure (SMILES): O=C(C1CCCC1)N1CCn2cccc2C1c1ccccc1 (stereo not drawn) [Example 24, cyclopentyl(1-phenyl-3,4-dihydropyrrolo[1,2-a]pyrazin-2(1H)-yl)methanone]
- inhibition at 10 µM (Serotonin reuptake): 32%
- NA reuptake % inhibition [10 μmol] (NA reuptake): 44%

Structure (SMILES): O=C(c1ccc2c(c1)OCO2)N1CCn2cccc2C1c1ccccc1F (stereo not drawn) [Example 9, benzo[d][1,3]dioxol-5-yl(1-(2-fluorophenyl)-3,4-dihydropyrrolo[1,2-a]pyrazin-2(1H)-yl)methanone]
- inhibition at 10 µM (Serotonin reuptake): 30%
- NA reuptake % inhibition [10 μmol] (NA reuptake): 27%

Structure (SMILES): O=C(C1CCCC1)N1CCn2cccc2C1c1cccc(Cl)c1 (stereo not drawn) [Example 42, (1-(3-chlorophenyl)-3,4-dihydropyrrolo[1,2-a]pyrazin-2(1H)-yl)(cyclopentyl)methanone]
- inhibition at 10 µM (Serotonin reuptake): 30%
- NA reuptake % inhibition [10 μmol] (NA reuptake): 22%

Structure (SMILES): CC1c2cccn2CCN1C(=O)/C=C/c1ccc(F)cc1 (stereo not drawn) [Example 73, 3-(4-fluorophenyl)-1-(1-methyl-3,4-dihydropyrrolo[1,2-a]pyrazin-2(1H)-yl)prop-2-en-1-one]
- inhibition at 10 µM (Serotonin reuptake): 25%

Structure (SMILES): CC1c2cccn2CCN1C(=O)/C=C/c1ccc(SC(F)(F)F)cc1 (stereo not drawn) [Example 74, 1-(1-methyl-3,4-dihydropyrrolo[1,2-a]pyrazin-2(1H)-yl)-3-(4-(trifluoromethylthio)phenyl)prop-2-en-1-one]
- inhibition at 10 µM (Serotonin reuptake): 32%

Structure (SMILES): O=C(c1ccccc1)N1CCn2cccc2C1c1cccs1 (stereo not drawn) [Example 82, phenyl(1-(thiophen-2-yl)-3,4-dihydropyrrolo[1,2-a]pyrazin-2(1H)-yl)methanone]
- NA reuptake % inhibition [10 μmol] (NA reuptake): 35%

More lines, main results first:

- inhibition at 10 µM (Serotonin reuptake): 28%
Structure (SMILES): Cc1cccc(C2c3cccn3CCN2C(=O)CC(C)C)c1 (stereo not drawn) [Example 15, 3-methyl-1-(1-m-tolyl-3,4-dihydropyrrolo[1,2-a]pyrazin-2(1H)-yl)butan-1-one]
- NA reuptake % inhibition [10 μmol] (NA reuptake): 19%

- inhibition at 10 µM (Serotonin reuptake): 12%
Structure (SMILES): CC(C)(C)CC(=O)N1CCn2cccc2C1c1cccs1 (stereo not drawn) [Example 85, 3,3-dimethyl-1-(1-(thiophen-2-yl)-3,4-dihydropyrrolo[1,2-a]pyrazin-2(1H)-yl)butan-1-one]

- inhibition at 10 µM (Serotonin reuptake): 27%
Structure (SMILES): Cc1cccc(C2c3cccn3CCN2C(=O)c2cccs2)c1 (stereo not drawn) [Example 14, thiophen-2-yl(1-m-tolyl-3,4-dihydropyrrolo[1,2-a]pyrazin-2(1H)-yl)methanone]
- NA reuptake % inhibition [10 μmol] (NA reuptake): 25%

- inhibition at 10 µM (Serotonin reuptake): 43%
Structure (SMILES): O=C(c1cccs1)N1CCn2cccc2C1c1ccc(Cl)c(Cl)c1 (stereo not drawn) [Example 65, (1-(3,4-Dichlorophenyl)-3,4-dihydropyrrolo[1,2-a]pyrazin-2(1H)-yl)(thiophen-2-yl)methanone]
- NA reuptake % inhibition [10 μmol] (NA reuptake): 49%

- inhibition at 10 µM (Serotonin reuptake): 48%
Structure (SMILES): CC(C)CC(=O)N1CCn2cccc2C1c1ccc(Cl)c(Cl)c1 (stereo not drawn) [Example 64, 1-(1-(3,4-dichlorophenyl)-3,4-dihydropyrrolo[1,2-a]pyrazin-2(1H)-yl)-3-methylbutan-1-one]
- NA reuptake % inhibition [10 μmol] (NA reuptake): 30%

- inhibition at 10 µM (Serotonin reuptake): 28%
Structure (SMILES): CCC(OC)C(=O)N1CCn2cccc2C1c1cccs1 (stereo not drawn) [Example 55, 2-methoxy-1-(1-(thiophen-2-yl)-3,4-dihydropyrrolo[1,2-a]pyrazin-2(1H)-yl)butan-1-one]

- inhibition at 10 µM (Serotonin reuptake): 31%
Structure (SMILES): CN(C)c1ccc(C2c3cccn3CCN2C(=O)c2cccs2)cc1 (stereo not drawn) [Example 53, (1-(4-(dimethylamino)phenyl)-3,4-dihydropyrrolo[1,2-a]pyrazin-2(1H)-yl)(thiophen-2-yl)methanone]
- NA reuptake % inhibition [10 μmol] (NA reuptake): 26%

- inhibition at 10 µM (Serotonin reuptake): 27%
Structure (SMILES): CCC(C)C(=O)N1CCn2cccc2C1c1ccccc1OC (stereo not drawn) [Example 48, 1-(1-(2-methoxyphenyl)-3,4-dihydropyrrolo[1,2-a]pyrazin-2(1H)-yl)-2-methylbutan-1-one]

- inhibition at 10 µM (Serotonin reuptake): 34%
Structure (SMILES): COc1ccccc1C(=O)N1CCn2cccc2C1c1ccc(Cl)cc1 (stereo not drawn) [Example 29, (1-(4-chlorophenyl)-3,4-dihydropyrrolo[1,2-a]pyrazin-2(1H)-yl)(2-methoxyphenyl)methanone]
- NA reuptake % inhibition [10 μmol] (NA reuptake): 21%

- inhibition at 10 µM (Serotonin reuptake): 25%
Structure (SMILES): O=C(CCCCc1ccccc1)N1CCn2cccc2C1c1cccs1 (stereo not drawn) [Example 77, 5-phenyl-1-(1-(thiophen-2-yl)-3,4-dihydropyrrolo[1,2-a]pyrazin-2(1H)-yl)pentan-1-one]
- NA reuptake % inhibition [10 μmol] (NA reuptake): 10%

- inhibition at 10 µM (Serotonin reuptake): 59%
Structure (SMILES): O=C(c1cccs1)N1CCn2cccc2C1c1ccc2c(c1)OCCO2 (stereo not drawn) [Example 36, [1-(2,3-dihydro-benzo[1,4]dioxin-6-yl)-3,4-dihydro-1H-pyrrolo[1,2-a]pyrazin-2-yl]-thiophen-2-yl-methanone]
- NA reuptake % inhibition [10 μmol] (NA reuptake): 41%

- inhibition at 10 µM (Serotonin reuptake): 16%
Structure (SMILES): CC(=O)N1CCn2cccc2C1c1cccs1 (stereo not drawn) [Example 83, 1-(1-(thiophen-2-yl)-3,4-dihydropyrrolo[1,2-a]pyrazin-2(1H)-yl)ethanone]

- inhibition at 10 µM (Serotonin reuptake): 51%
Structure (SMILES): CCCCCC(=O)N1CCn2cccc2C1c1cccs1 (stereo not drawn) [Example 78, 1-(1-(thiophen-2-yl)-3,4-dihydropyrrolo[1,2-a]pyrazin-2(1H)-yl)hexan-1-one]

- inhibition at 10 µM (Serotonin reuptake): 26%
Structure (SMILES): CCC(C)C(=O)N1CCn2cccc2C1c1ccccc1C (stereo not drawn) [Example 31, 2-methyl-1-(1-o-tolyl-3,4-dihydropyrrolo[1,2-a]pyrazin-2(1H)-yl)butan-1-one]

- inhibition at 10 µM (Serotonin reuptake): 17%
Structure (SMILES): O=C(CCCc1ccccc1)N1CCn2cccc2C1c1cccs1 (stereo not drawn) [Example 87, 4-phenyl-1-(1-(thiophen-2-yl)-3,4-dihydropyrrolo[1,2-a]pyrazin-2(1H)-yl)butan-1-one]
